The source of these data is patent publication US20020072601A1, “Method for forming amino acid derivatives from tricyclic diketopiperazines” (University of Southern Mississippi, priority 2000, published 2002).

This data set is described as follows: Gelation studies: minimum concentration needed for solvent gelation. The conditions noted are these: cooled to room temperature. Format: physicochemical. The method, then: The ring-opening reaction of PyDKP with certain nucleophiles (Reaction 3) forms a class of pyroglutamate derivatives that gel organic solvents. In these experiments, the solubility and minimum concentration needed for solvent gelation were determined. Tetradecyl pyroglutamide was placed in various solvents which were then heated to their boiling point, except silicone and soybean oil, which were heated to 150° C. to prevent decomposition of the gelator. In most cases, regardless of partial insolubility in some instances, the various solvents formed immobile gels upon cooling to room temperature. All of the gels were thermoreversible, meaning the gel would revert back to liquid with the application of heat and then reform with cooling.

`CCCCCCCCCCCCCCNC(=O)[C@@H]1CCC(=O)N1` [N-tetradecyl pyroglutamide, N-Pyroglutamyl tetradecylamine]: the “gel Concentration” value was determined as 50 g/L (1-Propanol); 15 g/L (Acetonitrile); 100 g/L (Benzene); 100 g/L (Butanol); 160 g/L (Chloroform); 50 g/L (Dichioromethane). The “gel Concentration” value was 30 g/L (Ethanol), 30 g/L (Methanol), 11 g/L (Silicone Oil) and 11 g/L (Soybean Oil).
